Marks after values point to notes of the source that are not given here.
What was measured:
[1] = system: U2OS cells; test: Immuno-cytochemistry of actin and focal adhesions (phospho-FAK); assay type: cell-based; details: 13 μM over-night (FIG. 6)
Procedure: FIG. 6: Actin and focal adhesion changes in TAT-RasGAP317-326-treated cells. 100,000 U2OS cells were cultured on coverslips for 24 hours and then treated with 13 μM TAT-RasGAP317-326, 13 μM TAT or left untreated (control) over-night. The cells were then fixed with 2% PFA, and peinieabilized with PBS Triton-X100 0.2%. The nuclei were stained with Hoechst 33342 and actin with Alexa Fluor 488 phalloidin. Focal adhesions were stained with an anti-phospho Tyr397 FAK. Representative images are shown.
100,000 U2OS cells were grown on coverslips overnight, and then treated as described in the figures. The cells were then fixed and the nuclei were stained in PBS containing 2% paraformaldehyde (weight/vol) (Acros Organics, catalog no: 30525-89-4) and 10 μg/ml Hoechst 33342 (Molecular Probe) for 15 minutes. The following steps were performed at room temperature in the absence of light. The cells were washed twice in PBS, permeabilized 10 minutes in PBS, 0.2% Triton X-100, washed twice in PBS, neutralized 15 minutes in DMEM, 10% FBS, and washed twice in PBS. The coverslips were then incubated 20 minutes in PBS 1.65 μM Alexa Fluor 488 phalloidin (Invitrogen, A12379). After a rapid wash in PBS, they were incubated with a polyclonal rabbit anti-phospho-FAK (tyrosine 397) primary antibody (1:50 dilution in DMEM, 10% FBS; Cell Signaling, catalog no: 3283) for 1 hour. After a rapid wash in PBS, the coverslips were incubated 1 hour with a donkey CyTM-anti-rabbit secondary antibody (1:500 dilution in DMEM, 10% FBS; Jackson ImmunoResearch, no. 711-165-152). The slides were finally washed twice in PBS and mounted in Vectashield mounting medium (Vector laboratories Inc.). Images were taken with a Zeiss Axioplan 2 imaging microscope.

[2] = system: U2OS cells; test: Adhesion assay (trypsinization assay) with peptides; assay type: cell-based; details: for cell adherence (resistance to trypsin): U2OS cells, 8 hours (FIG. 4A)
Procedure: (a) U2OS cells were cultured until confluency and treated during 0 h, 1 h, 3 h, 8 h and 14 h with 13 μM TAT, 13 μM TAT-RasGAP317-326 or without treatment. The cells were then trypsinized during 5 minutes (or not trypsinized), washed with PBS and stained with GIEMSA. Four pictures were taken per plate using a Zeiss Axioplan 2 microscope equipped with a 10× objective and the number of cells per surface area was determined. Representative images are shown. The graph represents the number of cells per mm^2 (mean±95% CI of 3 independent experiments). Scale bar=100 μm. (b) Trypsinization assay on cancerous cell lines (U2OS, HeLa, 4T1, HCT116, SAOS) and non-cancerous cell lines (HEK293T and HaCaT). Cells were treated and analyzed as in panel (a). Values for control and TAT treatments are shown literally as they were too low to be seen on the graphs. (c) Reversibility of the TAT-RasGAP317-326 induced adhesion. Confluent U2OS cells were treated during 24 h with 13 μM TAT, 13 μM TAT-RasGAP317-326 or not treated. The cells were then washed and incubated in culture medium without peptides for the indicated periods of time. Cells were analyzed as in panel (a).
(§1) (a) RasGAP317-326 without cell-permeation sequences is not able to render cells resistant to trypsin. 300,000 U2OS cells were cultured overnight in 3.5 cm plates and then treated during 8 hours with the indicated peptides (the concentration of each peptide was 13 μM). The cells were then subjected to a trypsinization assay. (b) 2×10^6 HEK293T cells were cultured overnight in 10 cm plates and transfected with empty vector (pcDNA3) or vectors encoding HA-tagged versions of fragment N2 or the 317-326 sequence of RasGAP. One day later, the cells were subjected to a trypsinization test. Results in (a) and (b) correspond to the number of cells per mm2 (mean±95% CI of 3 independent experiments). Some values are shown literally as they were too low to be seen on the graphs.
5×10^5 cells were grown overnight and then incubated with peptides or transfected (see the figures for the specific conditions used). The treated cells were washed with phosphate buffered saline (PBS) and then incubated with trypsin-EDTA solution (Sigma; catalog no: T3924; […]) during 5 minutes. The plates were gently hand-rocked 2 and 4 minute after trypsin addition. Detached cells were removed with a PBS wash and the remaining attached cells were dried, incubated in ethanol during 10 minutes, dried again, and finally stained with GIEMSA (Invitrogen) for 45 minutes. Four and six phase contrast pictures were taken (Zeiss Axioplan, 10× objective) for 3.5 cm-plates and 10 cm-plates, respectively. The number of cells per mm2 was then determined.

[3] = system: 4T1-luc2 cells; test: In vivo metastases model (orthotopic mammary fatpad 4T1-luc2 tumor); parameters: species or system nude mice
Procedure: 100,000 4T1-luc2 cells were injected orthotopically into the mammary fatpad of nude mice. Four groups of eight nude mice were then treated with or without 0.16 mg TAT-RasGAP317-326 per kg of mouse on the first, third and fifth day of the week during 28 days. The tumor volumes were measured with a caliper at the indicated time points and were calculated according to the formula described in the “MATERIAL AND METHODS” section. A repeated measure ANOVA was performed and no differences were found between the two groups.
Nude mice were injected into the mammary fatpads with 100,000 murine mammary cancer 4T1-luc2 cells that constitutively express the firefly luciferase. For the injection, the mouse skin was incised in the pelvic area to reach the fatpads, and the wounds were closed after injection with surgery hooks. The cells were injected in 100 μl Matrigel (BD Biosciences, 20% in PBS). Tumor volumes were quantified as follow: The tumor width and length were measured with a caliper and the tumor volume was calculated according to the formula tumor volume [mm3]=(12*L)*π/6, where 1 is the smallest measure between the width and the length (in mm), and L the longest (in mm) In order to quantify metastases, the mice were injected i.p. with 200 μl D-Luciferin Firefly (15 mg/ml in PBS) in PBS, Biosynth, No. L-8220) and luminescence was measured 10 minutes afterwards with an IVIS Lumina 2 apparatus (Xenogen). Metastases were assessed at the indicated time points in vivo and at the last day (28 days after tumor injection) ex vivo for the following organs: lung, liver and axillary and brachial lymph nodes. For the ex vivo measurements, the mice were injected with luciferin as described above, and sacrificed 10 minutes later to excise organs. The light emitted by the organs was measured in a Luciferin bath (150 μg/ml D-Luciferin Firefly in 2 ml PBS per organ). Luminescence is presented as the number of photons emitted per second (p/s).
28 days after cancer cells injection, the same mice than those in FIG. 5 were subjected to ex vivo metastases luminescence measurements. The lung, liver, axillary and brachial lymph node (LN) metastases were quantified by luminescence after luciferine i.p. injection. Organs emitting light were considered as bearing metastases. The asterisk denotes a significant difference against the control treatment (0 mg/kg TAT-RasGAP317-326) (p=0.0238 after an Fisher's Exact Test).

[4] = molecular target: T1, trypsin (Sus scrofa, UniProt P00761); test: Trypsin pre-incubated with peptide, cell detachment; details: trypsin pre-incubated one hour with peptide; data not shown
T1 construct: purchased Sigma T3924
T1 sequence (P00761 9-231): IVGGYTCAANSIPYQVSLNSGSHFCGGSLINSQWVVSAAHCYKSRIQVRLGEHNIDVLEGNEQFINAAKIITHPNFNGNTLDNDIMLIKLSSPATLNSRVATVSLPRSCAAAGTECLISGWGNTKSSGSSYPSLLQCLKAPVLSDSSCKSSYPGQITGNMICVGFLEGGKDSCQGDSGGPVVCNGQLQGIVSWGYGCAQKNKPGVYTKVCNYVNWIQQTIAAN
From the text: TAT-RasGAP317-326 could increase adherence and block migration by acting in the cellular environment or at the surface of cells. Alternatively, these effects could be induced only once the peptide has entered cells. The following evidence favors the second possibility.

[5] = system: U2OS, HeLa, HCT116 and HaCaT; test: Wound-healing experiment; assay type: cell-based; details: 13 μM peptide, HCT116, HaCaT (FIG. 2)
Procedure: Cells were cultured until confluency and a wound in the cell layer was done with a yellow tip. The cells were then left untreated or incubated 24 hours with 13 μM of TAT or TAT-RasGAP317-326 peptides. Pictures were taken just after wounding (0 hour) and at the indicated times. Results correspond to the width of the wound (mean±95% CI of 4 independent experiments). Asterisks denote significant differences between the control and the other conditions at a given time point (t-test after Bonferroni correction). Bar=100 μm. Cells were grown until confluency and a wound in the cell layer was done with a yellow tip. The cells were washed once with PBS to remove debris and then left untreated or incubated 24 hours and 48 hours with 13 μM of TAT or TAT-RasGAP317-326 peptides (in DMEM+10% FBS). Pictures were taken just after wounding (0 h) and at the indicated times. The wound widths were measured as described earlier (Bulat et al., 2009).

[6] = system: U2OS cells; test: Proliferation assay; assay type: cell-based; details: 13 μM (FIG. 3)
Procedure: 30,000 U2OS cells were seeded in 3.5 cm-plates. The cell number in the plates were then determined 24 and 48 hours later as described in FIG. 1, panel (a). The graph represents the number of cells per mm2 (mean±95% CI of 3 independent experiments). No significant difference between the growth curves could be detected (repeated measures ANOVA). 30,000 U2OS cells were seeded in 3.5 cm plates and cultured overnight. The cells were either treated with 13 μM TAT, 13 μM TAT-RasGAP317-326 or left untreated. Pictures were taken after 0 h, 24 h and 72 hours and cells were counted. The number of cells was then adjusted per mm2.

[7] = peptide by itself; Michod et al., 2004; 2009; cited from earlier work
[8] = system: HEK293T cells; test: Adhesion assay (trypsinization test) after transfection; assay type: cell-based; details: HEK293T cells transfected with HA-tagged constructs, one day (FIG. 4B)
Procedure: as §1
2×10^6 HEK293T cells were cultured overnight in 10 cm-culture plates and transfected with 18 μg of the plasmid of interest and 2 μg of pEGFP-C1 (a green fluorescent protein-encoding plasmid from Clontech) using the calcium-phosphate method (Jordan et al., 1996). Briefly, plasmids were diluted in 450 μl water and mixed with 50 μl CaCl2 2.5M during 30 minutes. […]
5×10^5 cells were grown overnight and then incubated with peptides or transfected (see the figures for the specific conditions used). […] The number of cells per mm2 was then determined.

[9] = 0.160 mg/kg, 28 days after cell injection, ex vivo luminescence

## GRKKRRQRRR [TAT, cell-permeable carrier peptide used as control, reference compound]
[1]
  actin and focal adhesion localization: did not exhibit any difference compared to untreated cells

## WMWVTNLRTD (listed as Homo sapiens) [RasGAP317-326]
[2]; 13 μM peptide
  cell adherence (resistance to trypsin): unable to increase cell adherence

## RRRRRRRRRGGWMWVTNLRTD [R9—RasGAP317-326, RasGAP317-326 conjugated to a 9 arginine peptide]
[2]; 13 μM peptide
  cell adherence (resistance to trypsin): functions as a cell adherence promoting agent

## GRKKRRQRRRGGWMWVTNLRTD [TAT-RasGAP317-326, RasGAP-derived peptide conjugated to HIV-TAT48-57 through two glycine residues]
[3]; 0.16 mg per kg on first, third and fifth day of the week during 28 days, nude mice (FIG. 5)
  primary tumor growth: does not affect primary tumor growth
[3]; [9]
  mice with metastases in the indicated organs vs total number of mice: Liver: 3/8
  mice with metastases in the indicated organs vs total number of mice: Lung: 2/8*
[3]; 0.160 mg/kg, 28 days after cell injection, ex vivo luminescence, axillary and brachial lymph nodes
  mice with metastases in the indicated organs vs total number of mice: LN: 3/8
[3]; 28 days, liver, lymph nodes
  formation of metastases in other organs: apparently no effect
[3]; 28 days, p=0.024, Fisher's Exact Test
  lung metastases: significant decrease in lung metastases
[4]
  trypsin inhibitory effect (ability of trypsin to detach cells): did not decrease the ability of trypsin to detach cells
[5]
  ability of the cells to fill wounds (cell migration): blocked the ability of the cells to fill wounds
[1]
  actin and focal adhesion localization: major changes in actin and focal adhesion localization
  cortical actin stress fibers: strong increase
  location of focal adhesions: mainly found at the cell's periphery
  ventral stress fibers: almost completely disappeared
[6]
  cell population growth: does not modulate cell population growth
[7]
  cell survival: does not, by itself, affect cell survival
[2]; 1 μg/ml actinomycin D or 30 μg/ml cycloheximide, data not shown
  ability to increase cell adherence when transcription or translation is blocked: None of the drugs affected the ability
[2]; 13 μM peptide, trypsinization 5 minutes, U2OS and other cell lines (FIG. 1)
  cell adhesion: induces cell adhesion

B1: RasGAP Fragment N2: HA-tagged human RasGAP amino acid 158-455 sequence, expressed from plasmid HA-N2.dn3 (protein, UniProt P20936 158-455, looked up, fragment)
chain: SLDGPEYEEEEVAIPLTAPPTNQWYHGKLDRTIAEERLRQAGKSGSYLIRESDRRPGSFVLSFLSQMNVVNHFRIIAMCGDYYIGGRRFSSLSDLIGYYSHVSCLLKGEKLLYPVAPPEPVEDRRRVRAILPYTKVPDTDEISFLKGDMFIVHNELEDGWMWVTNLRTDEQGLIVEDLVEEVGREEDPHEGKIWFHGKISKQEAYNLLMTVGQVCSFLVRPSDNTPGDYSLYFRTNENIQRFKICPTPNNQFMMGGRYYNSIGDIIDHYRKEQIVEGYYLKEPVPMQDQEQVLNDTVD
modifications: HA tag
[8]
  cell adherence after transfection: Increases Cell Adherence

Source: patent US20120022000A1, “USE OF A PEPTIDE IN THE TREATMENT OR PREVENTION OF METASTASIS” (UNIVERSITE DE LAUSANNE, priority 2009, published 2012)
